Columns and labels:
[1] = test system: focal cerebral ischemia induced by MCAO (middle cerebral artery occlusion) in rats; assay: focal cerebral ischemia induced by MCAO (middle cerebral artery occlusion) in rats; type: in vivo, SD rat; settings: induced by ADP-2Na, final concentration of ADP, turbidimetry; 50mg/kg gavage once daily for 5 days; X±SD
Experimental: Male SD rats, weighing 240~290g, grouping and dosages were as above. Additionally, a positive control group, i.e., nimodipine 50mg/kg group was set up. Animals of each group were gavage once daily for consecutive 5 days in predetermined dosage. At 30 minute after the last administration, the animals were anesthetized with 12% chloral hydrate in 350 mg/kg via intraperitoneal injection. The animals were kept left lateral position and the skin was cut along the middle point between right ear and eye line. Temporalis was separated and cheekbone was sheared. A holl was drilled with a dental drill in front of zygomatic root and MCA was exposed. […]
The animals were scored on neurological functions at 6 hour and 24 hour after modeling, according to behavior such as movement. […]
24 hour after modeling and after neurological scoring, blood was taken via carotid artery intubation in duplicate. For one sample, serum was separated and the activity of AST and LDH was determined according to the method of the kit; for another sample, it was treated with 3.8% sodium citrate in 1:9 for the purpose of anticoagulation, centrifuged at 1000rpm for 5 minutes to prepare platelet rich plasma (PRP), and centrifuged at 3500rpm for 10 minutes to prepare platelet poor plasma (PPP). […]

[2] = comparative study on solubilities (China Pharmacopeia 2005 terms); type: physicochemical; settings: terms per China Pharmacopeia 2005
[3] = background statement; cited from earlier work

Row | SMILES | rate of platelet aggregation [1] [%] | solubility in 0.01NNaOH ([2]; 0.01NNaOH) | solubility in 95%EtOH ([2]; 95%EtOH) | solubility in H2O ([2]; H2O) | solubility in MeOH ([2]; MeOH) | solubility in n-BuOH ([2]; n-BuOH) | solubility in water [3]
1 | COCCOC(=O)C1=C(C)NC(C)=C(C(=O)OC(C)C)C1c1cccc([N+](=O)[O-])c1 (stereo not shown) [nimodipine, reference compound] | 54.15±7.76 | – | – | – | – | – | –
2 | O=C(O)[C@H]1O[C@@H](Oc2cc3oc(-c4ccc(O)cc4)cc(=O)c3c(O)c2O)[C@H](O)[C@@H](O)[C@@H]1O [scutellarin] | – | soluble | slightly soluble | very slightly soluble | slightly soluble | slightly soluble | sparingly soluble
